The text below walks through data of BindingDB's records for doi:10.1021/acs.jmedchem.9b01663 (Dalian University of Technology, 2020).

One may read the IC50 as the concentration that gives 50% inhibition.

This assay can be described thus: Inhibition of CRM1 in human HCT-15 cells assessed as reduction in cell viability incubated for 24 hrs.

Consider `[O-][S@@+](/C=C/CCN=C=S)c1cc(C(F)(F)F)cc(C(F)(F)F)c1`, for which the IC50 was determined as 151 nM.
